Experimental data taken from patent publication US7531676B2, “Lipids” (Celltech R & D Limited, priority 1999, dated 2009).
Where a name gives a salt, the structure may show the parent alone.

Key:
[1] = system: Chinese Hamster Ovary (CHO) cells; experiment: CHO transfection with lipid condensed DNA, beta-galactosidase reporter; format: cell-based; conditions: for β-galactosidase in cell extract mUnits per mg protein: CHO cells, Lipid:DNA mass ratio 8:1, pEG/acZ plasmid; for β-galactosidase expression in the CHO cells (in words): lipid condensed DNA versus non-condensed DNA control (undetectable)
Description: Plasmid DNA (pEG/acZ) was prepared at concentrations of typically 60 or 120 μg/ml in water. Solutions of lipids according to the invention were prepared in water over a range of concentrations (typically 30 to 960 μg/ml). An equal volume of DNA was added dropwise to a tube containing a solution of the lipids whilst vortexing the tube.
Chinese Hamster Ovary (CHO) cells were seeded in to 24 well plates at 100,000 cells per well 24 h before experiment. Cells were washed once in Optimem™ medium prior to transfection. Wash medium was removed and replaced with 0.5 ml of Optimem™ to which the required amount of lipid condensed DNA was added (typically 1 to 5 μg DNA equivalent). Usually three replicate transfection wells were set up per condensed DNA sample tested. Cells were incubated for a further 34 h at 37° C., 5% CO2 before removal of the complex and additon of 1 ml of fresh medium (Iscoves™ medium: modified DMEM plus glutamate, asparagine, adenosine, guanosine, cytidine, uridine, thymidine and 10% dialysed foetal calf serum). Cells were cultured for a further 48-72 hours before harvesting and assay. Levels of Beta galactosidase reporter gene activity were determined using an enzyme assay system from Promega as follows. Cells were washed twice with I ml of phosphate buffered saline and solubilised in 200 ul of 1× cell lysis buffer. 50 ul of cell extract was incubated with the provided buffer and substrate o-nitrophenyl-β-D-galactopyranoside and the optical density measured spectrophoto-metrically. Levels of β-gal expression were quantitated by reference to the standard curve and related to the amount of protein in the extract (measured using the BCA assay kit from Pierce) to give a final value expressed as mU of β-gal per mg of protein.

DNase I = experiment: DNase treatment of lipid/DNA complexes, plasmid integrity by gel; conditions: charge ratio of at least 2:1; DNase I 1 unit/1 μg DNA, 37° C., 10 minutes
Excerpt: (§1) One of the ultimate goals of current gene therapy research is to develop a delivery system which will remain stable and effective in vivo, since this would remove the need for expensive and time-consuming ex-vivo manipulations. Since intravenous administration offers the possibility of delivery to the largest number of tissue sites, survival of the gene delivery complex in the presence of serum could be an important feature of any effective technology. Many published studies have demonstated the susceptibility of gene delivery complexes to inactivation by serum even at levels as low as 10%. This effect is due, at least in part, to the destabilisation of complexes by a poorly understood mechanism, and this can lead to degradation of the DNA within the complex by serum-associated nucleases. We have therefore formed complexes between the lipids of the invention and plasmid DNA and subjected these to treatment with purified DNase and pronase as well as with 50% foetal calf serum. Integrity of the plasmid DNA was then measured.
(§2) Plasmid DNA (pEG/acZ) was prepared at a concentration of 120 μg/ml in water. […] Finally, all samples were analysed by electrophoresis on 0.8% agarose gels.

protease XIV (pronase) = experiment: Pronase treatment of lipid/DNA complexes, plasmid integrity by gel; conditions: protease XIV 150 μg/ml, 30 min at 37° C.
Excerpt: as §1, §2

Plasmid DNA (pEG/acZ) = experiment: Agarose gel electrophoresis of lipid/plasmid DNA complexes (DNA retardation/condensation); format: binding
Description: Plasmid DNA (pEG/acZ) was prepared at a concentration of 120 μg/ml in water. A lipid according to the invention [for example the hexamine H18 described in the Example above] was prepared in a range of concentrations such that charge ratios of lipid:DNA of 0.25:1, 1:1, 2:1, 4:1, 8:1 would be obtained (based on the assumption that DNA at 120 μg/ml is equivalent to 0.387 mM of negative charge, and the hexamine H18 for example at 10 mg/ml is equivalent to 36.23 mM of positive charge). An equal volume of DNA was added dropwise to a vortexing tube containing the lipid in water. For DNase treatment, DNase I (FPLCpure, Pharmacia) was added at a concentration of 1 unit/1 μg of DNA and tubes were incubated at 37° C. for 10 minutes. To inhibit further action of DNase, EGTA was added to a final concentration of 25 mM. For pronase treatment, protease XIV (Sigma) was added to samples to a final concentration of 150 μg/ml, and samples incubated for 30 min at 37° C. Complexes were disrupted in 0.5% SDS with incubation at 55° C. for 20 min. Serum treatment involved incubating the samples in the presence of 50% foetal calf serum (final concentration) for 30 min at 37° C. EGTA was added to a final concentration of 50 mM in an attempt to prevent subsequent action of serum-associated nucleases. Finally, all samples were analysed by electrophoresis on 0.8% agarose gels.

SMILES | β-galactosidase in cell extract mUnits per mg protein [1] [mUnits per mg protein] | β-galactosidase expression in the CHO cells (in words) [1] | resistance of condensed DNA to treatment by DNase (DNase I) | resistance of lipid/DNA condensates to treatment by pronase (protease XIV (pronase)) | mobility of plasmid DNA through gel (Plasmid DNA (pEG/acZ); charge ratio of 2:1 (H18:DNA), 0.8% agarose gel) | visibility of plasmid DNA by ethidium bromide fluorescence (DNA fully condensed) (Plasmid DNA (pEG/acZ); charge ratios higher than 2:1)
NCCCCNCC(CCCCCCNC(=O)CCCCCCCCCCCCCCCCCCCCCCCNC(=O)[C@H](O)[C@H](O)[C@H](O)[C@H](O)CO)CNCCCCN (stereo in doubt) [Lipid H3, (trifluoroacetate) salt] | 11 ± 4 | significant β-galactosidase expression |  |  |  | 
NCCCNCCCCNCC(CCCCCCNC(=O)CCCCCCCCCCCCCCCCCCCCCCCNC(=O)[C@H](O)[C@@H](O)[C@H](O)[C@H](O)CO)CNCCCCNCCCN (stereo in doubt) [Lipid H18, (trifluoroacetate) salt] | 40 ± 9 | significant β-galactosidase expression | resistant | resistant | no DNA entered the gel | no longer visible
